Reference: PMC12290638, “Cubebin, a Lignan Isolated from Drimys andina, Exhibits Potent and Selective Antiparasitic Activity against Angiostrongylus cantonensis” (ACS Omega, 2025)
“Also recorded” adds a separate entry of the source. Like-named read-outs stand apart in the source and are kept apart here.

What was measured:
[1] = system: Angiostrongylus cantonensis first-stage (L1) larvae; assay: Antiparasitic assay with A. cantonensis L1 larvae (motility); type: cell-based; details: for EC50: Angiostrongylus cantonensis, read-out: A. cantonensis EC50, L1; for selectivity index, L1: SI = CC50 (human HaCaT cells)/EC50 (L1)
Method: (§1) The life cycle of A. cantonensis (NPDN-AC strain) was maintained at the Research Center on Neglected Diseases, Guarulhos University, using either Biomphalaria glabrata (freshwater snails) or Achatina fulica (terrestrial mollusks) as intermediate hosts, and Wistar rats (Rattus norvegicus) as definitive hosts. All animals were maintained under controlled conditions (22 °C, ∼50% humidity) with ad libitum access to food and water.
First-stage larvae (L1) of A. cantonensis were isolated from the feces of infected Wistar rats using the Rugai sedimentation technique, followed by washing in RPMI 1640 medium containing antibiotics. Approximately 50 larvae were transferred to each well of a 96-well plate. Cubebin and albendazole (positive control) were tested starting at 100 μM using a serial dilution format for EC50 determination. Plates were incubated at 21 °C. Untreated larvae served as negative controls. […] Efficacy was defined as ≥60% of larvae becoming immobile after 24 h.
(§2) EC50 and CC50 values were calculated from nonlinear sigmoidal dose–response curves using GraphPad Prism version 8.0 (San Diego, CA). Group differences were analyzed using one-way ANOVA followed by Tukey’s post hoc test. A P-value of <0.05 was considered statistically significant.

[2] = system: Angiostrongylus cantonensis infective third-stage (L3) larvae; assay: Antiparasitic assay with A. cantonensis L3 larvae (motility); type: cell-based; details: for EC50: read-out: A. cantonensis EC50, L3; for selectivity index, L3: SI = CC50 (human HaCaT cells)/EC50 (L3)
Method: as §1
Third-stage larvae (L3) of A. cantonensis were obtained from infected A. fulica via artificial digestion in HCl-pepsin solution, followed by sedimentation using the modified Rugai method. Approximately 50 larvae were added per well in 96-well plates. Cubebin and albendazole were tested starting at 100 μM in a serial dilution format for EC50 estimation. Plates were incubated at 21 °C, and larval viability was assessed at 0 and 24 h using an inverted microscope. […] Efficacy was defined as ≥60% immobility after 24 h.
as §2

[3] = Cytotoxicity assay (MTT), Vero cells; type: cell-based, monkey; details: monkey, Vero cells, MTT, 48 h exposure per figure legend (method: 24 h), read-out: mammalian cells CC50, monkey
Method: (§3) HaCaT cells (human keratinocytes) were obtained from the Banco de Células do Rio de Janeiro (Duque de Caxias, RJ, Brazil), and Vero cells (monkey kidney epithelial cells) were purchased from the American Type Culture Collection (ATCC CCL-81; Manassas, V). Cells were cultured in DMEM supplemented with 2 mM L-glutamine (Vitrocell), 100 U/mL penicillin, 100 μg/mL streptomycin, and 10% heat-inactivated fetal bovine serum, and maintained at 37 °C in a humidified atmosphere containing 5% CO2.
(§4) Cytotoxicity was evaluated using the MTT assay as previously described. Briefly, cells were seeded into 96-well plates (Corning) at a density of 2 × 10^3 cells per well and exposed to cubebin. The initial concentration tested was 500 μM, followed by 3-fold serial dilutions. Doxorubicin (15 μM) served as the positive control, while 0.5% DMSO was used as negative control. After 24 h of incubation at 37 °C with 5% CO2, MTT solution (Sigma) was added, and plates were incubated for an additional 4 h. Absorbance was measured at 595 nm using a spectrophotometer (Epoch, BioTek Instruments, Winooski, VT). Cell viability was expressed as a percentage relative to control wells. All assays were performed in triplicate and repeated independently three times.
as §2

[4] = system: Vero cells (monkey kidney epithelial cells); assay: Cytotoxicity assay (MTT), Vero cells; type: cell-based; details: at concentrations up to 200 μM
Method: as §3, §4, §2

[5] = Cytotoxicity assay (MTT), HaCaT cells; type: cell-based, human; details: human, HaCaT cells, MTT, 48 h exposure per figure legend (method: 24 h), read-out: mammalian cells CC50, human
Method: as §3, §4, §2

[6] = system: HaCaT cells (human keratinocytes); assay: Cytotoxicity assay (MTT), HaCaT cells; type: cell-based; details: at concentrations up to 200 μM
Method: as §3, §4, §2

[7] = system: Caenorhabditis elegans (Bristol N2 strain) L4 larvae; assay: Lethal toxicity assay in C. elegans; type: in vivo; details: for C. elegans LD50 (lethal concentration 50%): L4 larvae, immobility, 72 h exposure per b20 (method b64: 24 h); for toxicity in C. elegans: cubebin at concentrations up to 1000 μM
Method: The nematode C. elegans (Bristol N2 strain) was maintained on nematode growth medium (NGM) plates seeded with Escherichia coli […].
Synchronized fourth-stage larvae (L4) of C. elegans were transferred to 96-well plates containing M9 medium, with approximately 60 larvae per well. Cubebin was tested at concentrations starting from 1000 μM. Ivermectin (10 μM) served as the positive control, while 0.5% DMSO was used as the negative control. After 24 h of incubation at 21 °C, larval viability was evaluated based on movement. Toxicity was defined as ≥60% immobility.

[8] = 24 h, score 1 = immotile to 4 = highly active

| SMILES | EC50 ([1]; 24 h) [µM] | selectivity index, L1 [1] | EC50 ([2]; Angiostrongylus cantonensis, 24 h) [µM] | selectivity index, L3 [2] | CC50 at 48 h [3] [µM] | cytotoxicity in Vero cells [4] | CC50 at 48 h [5] [µM] | cytotoxicity in HaCaT cells [6] | C. elegans LD50 (lethal concentration 50%) [7] [µM] | toxicity in C. elegans [7] | larval viability (motility) score, L1 [1, 8] | EC50 ([1]; first-stage (L1) larvae, 24 h, 21 °C, immobility, mean ± SD, three independent experiments) [µM] | larval viability (motility) score, L3 [2, 8] | EC50 ([2]; Angiostrongylus cantonensis, 24 h, infective third-stage (L3) larvae, 24 h, 21 °C, immobility, mean ± SD, three independent experiments) [µM] | EC50 ([2]; infective third-stage (L3) larvae, 24 h, 21 °C, immobility, mean ± SD, three independent experiments) [µM] | CC50 at 48 h ([3]; Vero cells (monkey kidney epithelial cells, ATCC CCL-81)) [µM] | CC50 at 48 h ([5]; HaCaT cells (human keratinocytes)) [µM] |
| --- | --- | --- | --- | --- | --- | --- | --- | --- | --- | --- | --- | --- | --- | --- | --- | --- | --- |
| CCCSc1ccc2nc(NC(=O)OC)[nH]c2c1 [albendazole, reference compound] | 12.8 ± 1.3 | >15.6 | 12.3 ± 1.9 | >16.2 | > 200 | no cytotoxicity | > 200 | no cytotoxicity | 13.6 ± 1.1 | potent toxicity |  |  |  |  |  |  |  |
| OC1OCC(Cc2ccc3c(c2)OCO3)C1Cc1ccc2c(c1)OCO2 (centres unmarked) [cubebin] |  | >42.5 |  | >13.1 |  | no cytotoxicity |  | no cytotoxicity | >1000 | no observable toxicity; also recorded: nontoxic | 1 | 4.7 ± 0.8 | 1 | 15.3 | 15.2 ± 0.9 | > 200 | > 200 |
